# Experimental data reported in publication PMC7419507, “In vitro Cas9-assisted editing of modular polyketide synthase genes to produce desired natural product derivatives” (Nature Communications, 2020).
# Where “and” joins values, the source holds several entries; their conditions need not be identical. Identical values can stand only once.
# Assays:
# Format in all cases: cell-based
# [1] = system: human ovarian adenocarcinoma SKOV-3 cells; assay: Cytotoxicity assay (CellTiter-Glo, 72 h), SKOV-3; details: raw replicate data
# Protocol: (§1) Jurkat cells were cultured in RPMI1640 medium supplemented with 10% foetal bovine serum, penicillin (50 U/ml), streptomycin (50 μg/ml), and Glutamax. SKOV-3 cells were cultured in DMEM medium supplemented with 10% fetal bovine serum, penicillin (50 U/ml), and streptomycin (50 μg/ml). MESO-1 cells were cultured in RPMI1640 medium supplemented with 10% fetal bovine serum, penicillin (50 U/ml), and streptomycin (50 μg/ml). All cell lines were seeded in a 384-well plate at a density of 1000 cells/well in 20 μl of media and incubated at 37 °C in a humidified incubator with 5% CO2. After 4 h, 2-fold dilution samples resolved in DMSO were added to the cell culture at the concentration of 0.5% (0.1 μl) and incubated for 72 h. Cell viabilities were measured using a CellTiter-Glo luminescent cell viability assay and EnVision multilabel plate reader.
# [2] = system: T lymphoma Jurkat cells; assay: Cytotoxicity assay (CellTiter-Glo, 72 h), Jurkat; details: raw data (replicates)
# Protocol: as §1
# [3] = target: T1, FKBP12 and mTOR (Homo sapiens, UniProt P42345+P62942); assay: Fluoppi analysis: induction of FKBP12-mTOR complex formation in transfected HeLa cells; details: for Foci intensity: raw data, one replicate per line
# T1 construct: host or cells: HeLa cells
# T1 sequence (P42345 2025-2114 limits assumed): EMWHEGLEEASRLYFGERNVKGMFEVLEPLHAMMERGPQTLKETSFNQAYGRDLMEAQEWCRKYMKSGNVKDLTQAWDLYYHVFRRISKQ
# T1 sequence (P62942 whole entry): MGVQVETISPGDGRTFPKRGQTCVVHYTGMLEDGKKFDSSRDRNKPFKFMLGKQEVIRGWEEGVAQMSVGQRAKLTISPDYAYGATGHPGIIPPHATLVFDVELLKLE
# Protocol: Fluoppi harbours a tetrameric fluorescent protein hAG tag and an oligomeric assembly helper Ash tag to create detectable fluorescent foci in cells when there are interactions between two proteins fused to each tag[32].
# HeLa cells were maintained in DMEM (Fujifilm Wako, Osaka, Japan) supplemented with 10% FBS (Thermo Fisher Scientific, MA, USA) and 1% of Penicillin-Streptomycin (Thermo Fisher Scientific) in a humidified incubator with 5% CO2 at 37 °C. Harvested cells were plated at 1 × 10^6 cells/well in 6-well plate and incubated for 6 h. Then each 1.25 µg of phAG-mTOR and pAsh-FKBP12 (Medical and Biological Laboratories Co., Ltd., Aichi, Japan) was co-transfected with Lipofectamine 2000 reagent (Thermo Fisher Scientific) overnight. Next day, transfected cells were harvested and seeded in 384-well optical-bottom microplate (PerkinElmer, MA, USA) at a density of 3000 cells/well. After the 24 h incubation at 37 °C, cells were treated with different concentrations of compounds for 1 h. Cells were then fixed with 4% paraformaldehyde and stained with 1 µg/ml of Hoechst33342 (Thermo Fisher Scientific). Cell images of 9 visual fields/well were acquired with ×20 objective lens in Opera Phenix High-Content Screening System (PerkinElmer) and analysed by Harmony4.9 software (PerkinElmer). Because protein-protein interactions are quantified by measuring the aggregation of fluorescent elements in foci, fluorescent intensity in foci was normalised by total fluorescent intensity in each cell. EC50 values were calculated using TIBCO Spotfire 10.3 software (PerkinElmer).
# [4] = system: malignant pleural mesothelioma MESO-1 cells; assay: Cytotoxicity assay (CellTiter-Glo, 72 h), MESO-1; details: raw replicate data
# Protocol: as §1
# [5] = system: Jurkat, SKOV-3 and MESO-1 cells; assay: Cytotoxicity assay, statements for all tested cell lines together; details: against the tested cell lines (Jurkat, SKOV-3, MESO-1)
# Protocol: as §1
smiles,measurement,setting,value
COC1CC2CCC(C)C(O)(O2)C(=O)C(=O)N2CCCCC2C(=O)OC(C(C)CC2CCC(O)C(OC)C2)CC=C(C)C(O)CC(=O)C(C)CC(C)C=CC=CC=C1C (centres unmarked) [Compound 10],SKOV3 viability (%),[1]; conc 9.53674e-5 uM,102.2% and 102.6% and 104.7%
same,SKOV3 viability (%),[1]; conc 0.000190735 uM,89.9% and 100.2% and 100.4%
same,SKOV3 viability (%),[1]; conc 0.00038147 uM,103.4% and 105.0% and 103.9%
same,SKOV3 viability (%),[1]; conc 0.000762939 uM,100.5% and 98.4% and 99.4%
same,SKOV3 viability (%),[1]; conc 0.00152588 uM,106.0% and 105.3%
same,SKOV3 viability (%),[1]; conc 0.00305176 uM,103.5% and 101.1% and 97.3%
same,SKOV3 viability (%),[1]; conc 0.00610352 uM,103.4% and 105.6% and 104.9%
same,SKOV3 viability (%),[1]; conc 0.012207 uM,103.7% and 98.9% and 95.6%
same,SKOV3 viability (%),[1]; conc 0.0244141 uM,104.7% and 103.8% and 99.6%
same,SKOV3 viability (%),[1]; conc 0.0488281 uM,100.2% and 99.1% and 100.0%
same,SKOV3 viability (%),[1]; conc 0.0976562 uM,104.8% and 104.3% and 100.1%
same,SKOV3 viability (%),[1]; conc 0.195312 uM,95.4% and 97.0% and 94.0%
same,SKOV3 viability (%),[1]; conc 0.390625 uM,97.7% and 103.0% and 102.9%
same,SKOV3 viability (%),[1]; conc 0.78125 uM,93.0% and 94.9% and 92.8%
same,SKOV3 viability (%),[1]; conc 1.5625 uM,96.7% and 99.9% and 92.6%
same,SKOV3 viability (%),[1]; conc 3.125 uM,90.3% and 92.8% and 92.7%
same,SKOV3 viability (%),[1]; conc 6.25 uM,95.7% and 97.5% and 89.4%
same,SKOV3 viability (%),[1]; conc 12.5 uM,93.5% and 97.4% and 91.5%
same,SKOV3 viability (%),[1]; conc 25 uM,91.8% and 89.5% and 94.8%
same,SKOV3 viability (%),[1]; conc 50 uM,48.8% and 50.2% and 51.9%
same,Jurkat viability (%),[2]; conc 9.53674e-5 uM,100.6% and 99.4% and 103.1%
same,Jurkat viability (%),[2]; conc 0.000190735 uM,101.6% and 102.5% and 98.5%
same,Jurkat viability (%),[2]; conc 0.00038147 uM,98.4% and 99.9%
same,Jurkat viability (%),[2]; conc 0.000762939 uM,100.1% and 103.3% and 99.4%
same,Jurkat viability (%),[2]; conc 0.00152588 uM,103.7% and 95.3% and 102.7%
same,Jurkat viability (%),[2]; conc 0.00305176 uM,99.4% and 102.2% and 96.7%
same,Jurkat viability (%),[2]; conc 0.00610352 uM,103.1% and 102.2% and 98.6%
same,Jurkat viability (%),[2]; conc 0.012207 uM,106.4% and 103.4% and 103.7%
same,Jurkat viability (%),[2]; conc 0.0244141 uM,106.5% and 107.7% and 103.0%
same,Jurkat viability (%),[2]; conc 0.0488281 uM,101.8% and 99.9% and 103.2%
same,Jurkat viability (%),[2]; conc 0.0976562 uM,106.2% and 107.8% and 101.3%
same,Jurkat viability (%),[2]; conc 0.195312 uM,97.6% and 99.7% and 92.3%
same,Jurkat viability (%),[2]; conc 0.390625 uM,92.6% and 88.6% and 95.1%
same,Jurkat viability (%),[2]; conc 0.78125 uM,82.4% and 83.0% and 85.1%
same,Jurkat viability (%),[2]; conc 1.5625 uM,79.7% and 82.1% and 77.6%
same,Jurkat viability (%),[2]; conc 3.125 uM,74.2% and 71.9% and 69.9%
same,Jurkat viability (%),[2]; conc 6.25 uM,76.5% and 74.7% and 74.5%
same,Jurkat viability (%),[2]; conc 12.5 uM,63.4% and 64.1% and 59.5%
same,Jurkat viability (%),[2]; conc 25 uM,29.8% and 32.1% and 29.9%
same,Jurkat viability (%),[2]; conc 50 uM,2.7% and 3.5% and 3.4%
same,"PPI-inducing (binding enhancing) activity between FKBP12 and mTOR compared with rapamycin (1), in words",[3]; Fluoppi,relatively weaker activities
same,EC50,"[3]; Fluoppi, HeLa cells, 1 h treatment, three independent biological replicates, read-out: EC50, induction of the formation of FKBP-mTOR complex",21 nM
same,Foci intensity,[3]; conc 9.53674e-5 uM,0.02938 and 0.02062 and 0.01935
same,Foci intensity,[3]; conc 0.000190735 uM,0.01089 and 0.04735 and 0.006372
same,Foci intensity,[3]; conc 0.00038147 uM,0.02158 and 0.01349 and 0.009009
same,Foci intensity,[3]; conc 0.000762939 uM,0.009136 and 0.02959 and 0.01473
same,Foci intensity,[3]; conc 0.00152588 uM,0.01663 and 0.006313 and 0.01798
same,Foci intensity,[3]; conc 0.00305176 uM,0.01047 and 0.01326 and 0.01713
same,Foci intensity,[3]; conc 0.00610352 uM,0.03111 and 0.03528 and 0.05091
same,Foci intensity,[3]; conc 0.012207 uM,0.1191 and 0.0902 and 0.07426
same,Foci intensity,[3]; conc 0.0244141 uM,0.2308 and 0.2676 and 0.239
same,Foci intensity,[3]; conc 0.0488281 uM,0.3046 and 0.3291 and 0.3775
same,Foci intensity,[3]; conc 0.0976562 uM,0.4136 and 0.3574 and 0.3612
same,Foci intensity,[3]; conc 0.195312 uM,0.3726 and 0.4258 and 0.4147
same,Foci intensity,[3]; conc 0.390625 uM,0.4457 and 0.3806 and 0.4256
same,Foci intensity,[3]; conc 0.78125 uM,0.3848 and 0.4238 and 0.4902
same,Foci intensity,[3]; conc 1.5625 uM,0.4004 and 0.3924 and 0.3797
same,Foci intensity,[3]; conc 3.125 uM,0.374 and 0.3995 and 0.4137
same,Foci intensity,[3]; conc 6.25 uM,0.4751 and 0.3772 and 0.3106
same,Foci intensity,[3]; conc 12.5 uM,0.4864 and 0.3577 and 0.3572
same,Foci intensity,[3]; conc 25 uM,0.403 and 0.3428 and 0.3243
same,Foci intensity,[3]; conc 50 uM,0.4648 and 0.4194 and 0.3824
same,MESO1 viability (%),[4]; conc 9.53674e-5 uM,100.8% and 105.3% and 105.4%
same,MESO1 viability (%),[4]; conc 0.000190735 uM,95.7% and 102.9% and 100.7%
same,MESO1 viability (%),[4]; conc 0.00038147 uM,104.6% and 103.5% and 110.6%
same,MESO1 viability (%),[4]; conc 0.000762939 uM,99.4% and 101.6% and 106.3%
same,MESO1 viability (%),[4]; conc 0.00152588 uM,103.6% and 107.9% and 110.6%
same,MESO1 viability (%),[4]; conc 0.00305176 uM,103.7% and 97.7% and 102.1%
same,MESO1 viability (%),[4]; conc 0.00610352 uM,102.5% and 110.7% and 106.5%
same,MESO1 viability (%),[4]; conc 0.012207 uM,100.1% and 112.2% and 102.4%
same,MESO1 viability (%),[4]; conc 0.0244141 uM,100.1% and 101.2% and 104.6%
same,MESO1 viability (%),[4]; conc 0.0488281 uM,99.1% and 97.8% and 101.7%
same,MESO1 viability (%),[4]; conc 0.0976562 uM,102.3% and 104.8% and 99.5%
same,MESO1 viability (%),[4]; conc 0.195312 uM,92.8% and 95.2% and 98.3%
same,MESO1 viability (%),[4]; conc 0.390625 uM,100.3% and 99.6% and 94.3%
same,MESO1 viability (%),[4]; conc 0.78125 uM,88.5% and 91.5% and 91.8%
same,MESO1 viability (%),[4]; conc 1.5625 uM,91.5% and 95.3% and 90.6%
same,MESO1 viability (%),[4]; conc 3.125 uM,85.5% and 90.0% and 83.9%
same,MESO1 viability (%),[4]; conc 6.25 uM,92.1% and 98.3% and 96.6%
same,MESO1 viability (%),[4]; conc 12.5 uM,90.4% and 90.6% and 90.0%
same,MESO1 viability (%),[4]; conc 25 uM,77.8% and 73.6% and 73.2%
same,MESO1 viability (%),[4]; conc 50 uM,53.8% and 51.9% and 42.0%
same,Concentration at which cytotoxic activities were shown,[5],over 10 µM
